For the assay, the system named is anticorps monoclonaux anti-MDP. As to the kind of experiment: Competitive ELISA: inhibition of binding of MDP-lysine-peroxidase conjugate to captured monoclonal anti-MDP antibody. On the set-up: species or system souris. As to the method:
On a recours à la technique antérieurement. décrite dans l'article de BAHR et Coll. déjà mentionné, sous réserve de quelques modifications de détail. Les éléments essentiels de la méthodologie utilisée sont rappelés ci-après.
Les puits de plaques micro-ELISA (commercialisées par la société DYNATECH) sont tapissés avec des fractions Ig d'anticorps de chèvre anti-souris IgM, IgA ou IgG, par maintien en contact avec leurs parois d'une solution contenant 5 ug/ml de la fraction Ig pendant 3 heures à 4°C. Après lavage de la plaque avec une solution de PBS contenant 0,05 % de l'agent de dispersion commercialisé sous la dénomination TWEEN 20, on ajoute des dilutions des surnageants d'hybridomes producteurs d'anticorps anti-MDP aux différents puits et on incube pendant 2 heures à la température ambiante. Les fractions Ig facilitent la retenue des anticorps anti-MDP. Les plaques sont ensuite lavées et une solution de MDP-lysine couplé à de la péroxydase de raifort diluée au 1/1000 est ajoutée aux puits. Les plaques sont ensuite laissées au repos pendant la nuit à 4°C. Après lavage, on détermine les proportions de MDP-lysine-péroxydase fixées dans les puits, en mettant en oeuvre l'ortho-phénylène-diamine et de l'eau oxygénée en tant que substrat de la péroxydase. […]

In the case of `CC(=O)N[C@H]1C(O)O[C@H](CO)[C@@H](O)[C@@H]1O[C@H](C)C(=O)N[C@@H](C)C(=O)N[C@H](CCC(=O)O)C(N)=O` (stereo partly drawn) [MDP, M-acétyl-muramyl-L-alanyl-D-isoglutamine], under “100 µl of MDP solution containing 100 ng, added together with MDP-peroxidase conjugate (1/1000), antibody diluted 1/100 = 100 % activity”, the “inhibitions exprimées par des activités” value stood at 31%. For `CC(=O)N[C@H]1C(O)O[C@H](CO)[C@@H](O)[C@@H]1O[C@H](C)C(=O)N[C@H](C)C(=O)N[C@H](CCC(=O)O)C(N)=O` (stereo partly drawn) [MDP-DD, N-acétyl- muramyl- D-alanyl-D-isoglutamine], the inhibition entry (added under the same conditions together with the conjugate, amount not stated) is reported as “aucune inhibition”.

For the origin of these results see EP0100734A1, “Process for the separation or purification of a sleep promoting factor from a biological source by immunological reaction of the antigen-antibody kind” (ANVAR Agence Nationale de Valorisation de la Recherche, priority 1982, dated 1984).
